Legend:
[1] = Selectivity index, ratio of IC50 for african green monkey (Cercopithecus aethiops) Vero cells to IC50 for chloroquine-sensitive Plasmodium falciparum F32; assay type: toxicity, cell-based; settings: read-out: Ratio IC50
Plasmodium falciparum [2] = assay: Antiplasmodial activity against chloroquine-resistant Plasmodium falciparum W2 gametocytes after 48 hrs by microscopy; assay type: functional, organism-based; settings: W2, 48 h
Plasmodium falciparum [3] = assay: Antiplasmodial activity against chloroquine-resistant Plasmodium falciparum FcB1 after 48 hrs by [3H]hypoxanthine uptake; assay type: functional, organism-based; settings: FcB1/Columbia
Plasmodium falciparum [4] = assay: Antiplasmodial activity against chloroquine-resistant Plasmodium falciparum W2 after 48 hrs by [3H]hypoxanthine uptake; assay type: functional, organism-based
[5] = Selectivity index, ratio of IC50 for african green monkey (Cercopithecus aethiops) Vero cells to IC50 for chloroquine-resistant Plasmodium falciparum FcB1; assay type: toxicity, cell-based; settings: read-out: Ratio IC50
[6] = Selectivity index, ratio of IC50 for african green monkey (Cercopithecus aethiops) Vero cells to IC50 for chloroquine-resistant Plasmodium falciparum W2; assay type: toxicity, cell-based; settings: read-out: Ratio IC50
Vero = assay: Cytotoxicity against african green monkey Vero cells assessed as [3H]hypoxanthine incorporation after 48 hrs; assay type: cell-based; settings: Chlorocebus sabaeus
[7] = Selectivity index, ratio of IC50 for african green monkey (Cercopithecus aethiops) Vero cells to IC50 for chloroquine-resistant Plasmodium falciparum FcM29; assay type: toxicity, cell-based; settings: read-out: Ratio IC50
Plasmodium falciparum [8] = assay: Antiplasmodial activity against chloroquine-resistant Plasmodium falciparum FcM29 after 48 hrs by [3H]hypoxanthine uptake; assay type: functional, organism-based
Plasmodium falciparum [9] = assay: Antiplasmodial activity against chloroquine-sensitive Plasmodium falciparum F32 after 48 hrs by [3H]hypoxanthine uptake; assay type: functional, organism-based

Row | SMILES | selectivity ratio [1] | IC50 (Plasmodium falciparum [2]) [µM] | IC50 (Plasmodium falciparum [3]) [µM] | IC50 (Plasmodium falciparum [4]) [µM] | selectivity ratio [5] | selectivity ratio [6] | IC50 (Vero) [µM] | selectivity ratio [7] | IC50 (Plasmodium falciparum [8]) [µM] | IC50 (Plasmodium falciparum [9]) [µM]
1 | COc1cc2cccnc2c2nc(C)c3ccoc3c12 | 72 | 3.75 | 0.93 | 0.93 | 39 | 66 | 62.2 | 129 | 0.48 | 0.86
2 | Cc1nc2c(ccc3cccnc32)c2[nH]ccc12 | 47 | 10.6 | 1.14 | 4.17 | 54 | 15 | 61.6 | 7 | 9.36 | 1.31
3 | COc1cc(NC(C)CCCN)c2ncccc2c1 (stereo not given) [PRIMAQUINE] | – | – | – | – | – | – | 340 | – | – | –
4 | COc1cc2cccnc2c2nc(C)c(CCCl)c(Cl)c12 | – | – | 4.84 | 6.56 | – | – | – | – | 5 | 7.71
5 | COc1cc2cccnc2c2nc(C)c3cc[nH]c3c12 | 72 | 9.8 | 0.22 | 1.28 | 132 | 23 | 29.8 | 23 | 1.28 | 0.41
6 | Cc1nc2c(ccc3cccnc32)c2occc12 | 32 | 5.5 | 0.97 | 1.1 | 39 | 34 | 37.6 | 99 | 0.38 | 1.18

From ChEMBL document CHEMBL1155951 (Bioorg Med Chem Lett, 2008)
